Assay [1] deals with RPMI-8226. Description: Antiproliferative activity against human RPMI8226 cells after 3 days by MTS assay. Format: functional, cell-based. The conditions noted are these: RPMI-8226, 72 h.
For assay [2], the system named is MV4-11. Description: Antiproliferative activity against human MV4-11 cells after 10 days by MTS assay. Format: functional, cell-based. The conditions noted are these: MV4-11, 240 h. On the technique in general: Tetrazolium assays rely on reduction of a dye to a coloured formazan, in cell work by metabolically active cells.
Assay [3] has as its system RPMI-8226. Description: Antiproliferative activity against human RPMI8226 cells after 10 days by MTS assay. The class given is functional, cell-based. To be noted: RPMI-8226, 240 h.
In assay [4] the target is T1, Lysine-specific histone demethylase 2 (Homo sapiens, UniProt Q8NB78).
T1 sequence (Q8NB78 whole entry): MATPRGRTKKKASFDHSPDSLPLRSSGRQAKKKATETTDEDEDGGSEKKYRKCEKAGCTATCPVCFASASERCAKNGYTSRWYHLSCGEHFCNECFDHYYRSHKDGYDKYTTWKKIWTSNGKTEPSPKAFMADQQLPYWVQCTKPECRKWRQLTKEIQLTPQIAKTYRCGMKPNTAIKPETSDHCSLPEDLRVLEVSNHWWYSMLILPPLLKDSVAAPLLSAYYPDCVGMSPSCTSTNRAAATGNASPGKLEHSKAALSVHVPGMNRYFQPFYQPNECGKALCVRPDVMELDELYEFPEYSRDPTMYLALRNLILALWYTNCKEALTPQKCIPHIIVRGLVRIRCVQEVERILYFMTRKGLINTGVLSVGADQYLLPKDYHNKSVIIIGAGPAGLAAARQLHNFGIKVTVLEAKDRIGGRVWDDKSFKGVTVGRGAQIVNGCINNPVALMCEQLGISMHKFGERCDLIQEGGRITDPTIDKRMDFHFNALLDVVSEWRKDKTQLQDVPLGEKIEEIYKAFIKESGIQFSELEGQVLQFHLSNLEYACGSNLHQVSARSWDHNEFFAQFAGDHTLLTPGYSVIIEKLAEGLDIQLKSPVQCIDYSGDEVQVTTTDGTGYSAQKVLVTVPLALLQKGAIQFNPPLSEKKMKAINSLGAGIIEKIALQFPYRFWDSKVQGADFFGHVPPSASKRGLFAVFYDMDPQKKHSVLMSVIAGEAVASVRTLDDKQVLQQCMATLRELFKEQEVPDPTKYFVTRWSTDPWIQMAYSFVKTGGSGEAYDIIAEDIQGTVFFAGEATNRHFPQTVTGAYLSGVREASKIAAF
Description: Inhibition of human full length LSD2 using biotin-labeled H3K4me2 (1 to 24 residues) as substrate after 1 hr by TR-FRET assay

In assay [5] the target is T2, Amine oxidase [flavin-containing] A (Homo sapiens, UniProt P21397).
T2 sequence (P21397 whole entry): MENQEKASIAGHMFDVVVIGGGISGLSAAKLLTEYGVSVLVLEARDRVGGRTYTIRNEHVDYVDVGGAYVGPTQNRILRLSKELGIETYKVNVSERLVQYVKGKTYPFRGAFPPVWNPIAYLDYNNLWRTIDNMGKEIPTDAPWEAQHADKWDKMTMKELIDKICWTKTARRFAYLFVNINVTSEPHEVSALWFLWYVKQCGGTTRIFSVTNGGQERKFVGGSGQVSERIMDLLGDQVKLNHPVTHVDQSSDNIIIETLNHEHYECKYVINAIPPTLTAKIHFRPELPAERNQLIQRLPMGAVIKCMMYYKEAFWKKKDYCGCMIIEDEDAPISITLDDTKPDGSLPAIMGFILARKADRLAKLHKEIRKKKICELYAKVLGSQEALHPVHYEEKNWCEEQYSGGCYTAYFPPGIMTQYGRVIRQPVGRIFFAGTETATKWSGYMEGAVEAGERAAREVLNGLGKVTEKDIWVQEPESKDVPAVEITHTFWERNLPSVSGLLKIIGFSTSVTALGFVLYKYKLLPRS
Briefly: biochemical.
Description: Inhibition of human recombinant MAO-A expressed in baculovirus infected insect cells by luminescence assay

Assay [6] relates to MV4-11. Briefly: Antiproliferative activity against human MV4-11 cells after 3 days by MTS assay. Format: functional, cell-based. To be noted: MV4-11, 72 h.
For assay [7], the target named is T3, Amine oxidase [flavin-containing] B (Homo sapiens, UniProt P27338).
T3 sequence (P27338 whole entry): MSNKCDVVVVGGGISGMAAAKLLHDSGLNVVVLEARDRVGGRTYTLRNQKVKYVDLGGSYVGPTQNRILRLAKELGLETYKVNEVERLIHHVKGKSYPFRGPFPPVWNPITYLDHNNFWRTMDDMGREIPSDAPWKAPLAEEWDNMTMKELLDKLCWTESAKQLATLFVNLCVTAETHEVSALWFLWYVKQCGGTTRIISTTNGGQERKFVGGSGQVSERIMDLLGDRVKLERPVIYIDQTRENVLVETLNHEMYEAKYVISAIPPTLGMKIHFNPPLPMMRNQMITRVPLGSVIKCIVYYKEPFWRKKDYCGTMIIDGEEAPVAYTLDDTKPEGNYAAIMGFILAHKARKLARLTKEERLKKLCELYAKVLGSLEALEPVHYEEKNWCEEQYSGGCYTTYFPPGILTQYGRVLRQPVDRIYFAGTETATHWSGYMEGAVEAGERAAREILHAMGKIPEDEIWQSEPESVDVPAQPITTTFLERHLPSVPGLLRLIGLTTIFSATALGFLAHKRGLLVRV
Description: biochemical.
Description: Inhibition of human recombinant MAO-B expressed in baculovirus infected insect cells by luminescence assay

One may read the IC50 as the concentration needed to halve the response being measured. Read a low IC50 as higher potency.

For the compound `NC1CCC(N[C@@H]2C[C@H]2c2ccccc2)CC1` (stereo partly specified), the IC50 with RPMI-8226 [1] is greater than 20 µM; with MV4-11 [2], 30 nM; with RPMI-8226 [3], greater than 20 µM; in assay [4], greater than 100 µM; in assay [5] it was greater than 100 µM; with MV4-11 [6], greater than 20 µM.
For `N[C@H]1CC[C@H](N[C@@H]2[C@H]3Cc4ccccc4[C@H]32)CC1` (racemic), the IC50 in assay [7] and in assay [5] was greater than 100 µM in each case.
`N[C@H]1CC[C@@H](N[C@@H]2[C@H]3Cc4ccccc4[C@H]32)CC1` (racemic): the IC50 in assay [7] and in assay [5] was greater than 100 µM throughout.
Turning to `N[C@H]1CC[C@H](N[C@H]2[C@H]3Cc4ccccc4[C@H]32)CC1` (racemic), the IC50 is greater than 20 µM with RPMI-8226 [1]; 700 nM with MV4-11 [2]; greater than 20 µM in the assay on RPMI-8226 [3]; greater than 100 µM in assay [7]; greater than 100 µM in assay [5]; greater than 20 µM with MV4-11 [6].
Consider `COc1ncccc1CN[C@H]1[C@H]2Cc3ccccc3[C@H]21` (racemic), for which the IC50 in assay [7] was greater than 100 µM; in assay [5], 79.7 µM.
For the compound `COc1ncccc1CN[C@@H]1[C@H]2Cc3ccccc3[C@H]21` (racemic), the IC50 in assay [4], in assay [7] and in assay [5] was greater than 100 µM each time.
In the case of `N[C@H]1CC[C@@H](N[C@H]2[C@H]3Cc4ccccc4[C@H]32)CC1` (racemic), the IC50 in the assay on RPMI-8226 [1] is greater than 20 µM; in the assay with MV4-11 [2] it was 200 nM; in the assay on RPMI-8226 [3], greater than 20 µM; in assay [7], greater than 100 µM; in assay [5], greater than 100 µM; in the assay on MV4-11 [6], greater than 20 µM.
`N[C@@H]1[C@H]2Cc3ccccc3[C@@H]12` (relative stereo): the IC50 in assay [7] and in assay [5] was greater than 100 µM each time.
As for `N[C@H]1[C@H]2Cc3ccccc3[C@@H]12` (relative stereo), the IC50 in assay [7] and in assay [5] was greater than 100 µM in each case.

The values above are taken from ChEMBL document CHEMBL4130492, “Tying up tranylcypromine: Novel selective histone lysine specific demethylase 1 (LSD1) inhibitors” (Eur J Med Chem, 2017).
